Measurements taken from US20260272908A1 (VANDERBILT UNIVERSITY, priority 2023, published 2026).

Tests used:
[1] = system: Meta4 organoids; assay: Meta4 dysplastic organoid growth and cell death (organoid diameter, phase-contrast, H&E, live/dead staining); type: cell-based, mouse; conditions: pyrvinium 100 nM, SSTC3 0.2-1 μM, STAT3-IN-1 1 μM, Sttatic 2 μM, 3 days
Experimental: All experiments were repeated at least three times.
All experiments were performed at least in triplicate.

[2] = system: Meta4 organoids; assay: FACS analysis of Meta4 organoids (7-AAD/annexin V; CD133/CD166); type: cell-based, mouse
[3] = system: Mist1-Kras mice; assay: Pyrvinium treatment of Mist1-Kras mice (metaplasia progression to dysplasia, gastric corpus histology and immunostaining); type: in vivo, mouse; conditions: pyrvinium 2 weeks, qRT-PCR
[4] = system: Wnt-target genes; assay: Real-time PCR for Wnt-target genes in Meta4 organoids; type: cell-based, mouse; conditions: pyrvinium 100 nM
Experimental: Mean±SD. One-way ANOVA with Tukey's multiple comparisons.
Total RNAs were extracted from Meta3 or Meta4 organoids using the Trizol (Invitrogen) reagent. cDNAs were synthesized using iScript gDNA clear cDNA synthesis kit (Bio-Rad) and RT-PCR was performed using SsoAdvanced™ Universal SYBR Green supermix (Bio-Rad) and a CFX96 Real-Time PCR Detection System (Bio-Rad). GAPDH, a house keeping gene, was used to normalize gene expression levels. All reactions were performed in triplicate and relative gene expression levels were obtained by the comparative ΔΔCt method using CFX Maestro software (Bio-Rad).

[5] = system: human pre-cancerous organoid (hPCO) lines; assay: Human precancerous organoid (hPCO) growth and organoid death
Experimental: To establish human pre-cancer organoids (hPCO), fresh tissues were obtained from the gastric cancer patients who underwent curative gastrectomy at SNUH (IRB No. H-1806-166-954).
Meta3, Meta4, and hPCO organoids were cultured in Matrigel (ECM, Sigma) with Mouse or Human IntestiCult medium (StemCell Technology) supplemented with 1% of penicillin/streptomycin (Gibco) in 48-well plates and medium was replaced every 3 days. The organoids were split every 5-7 days before they formed budding structures.
Mouse or human organoids were split and cultured in the Mouse or Human IntestiCult media for 1-2 days until they formed three-dimensional (3D) spherical structures, then the media was switched to media containing either DMSO vehicle or a certain concentration of each drug and cultured for 3 days. The EVOS M7000 inverted microscope were used to obtain phase contrast images of organoids. All experiments were repeated at least three times.
The number and diameters of mouse and human organoids treated with drugs were manually counted and measured at day 0 and 3 or 6 after treatment from four entire well images of each condition at 4× magnification. For counting live or dead cells, organoids were stained with Calcein AM for live cells and EthD-1 for dead cells 3 days after treatment and the number of EthD-1 positive organoids were manually counted from images taken from three wells of each condition at 4× magnification. All experiments were performed at least in triplicate. The mean values from each condition were compared by Student's paired or unpaired t-test using Graphpad Prism. *P<0.05, **P<0.01, ***P<0.001, ****P<0.0001.

[6] = system: STAT pathway / STAT3^Y705 phosphorylation; assay: Phospho-antibody array in Meta3 and Meta4 organoids; type: cell-based, mouse; conditions: pyrvinium, 3 days
From the text: Shading scale represents standardized log 2(FDR) values. […] Each square represents the signal ratio of the antibody against the unphosphorylated form of the site. FIG. 2E schematically illustrates how the STAT3 and DPPs in RAS/MAPK pathway is affected by Pyr treatment in precancerous organoids.
The top 10 protein candidates were selected, including p-MYC^T358, p-PKCtheta^T538, p-C-Raf^S43 p-STAT3^Y705, p-Pyk2^T580, p-Histone H3.1^S10, p-CREB^T100, p-Pyk2^T881, p-SRF^S77, and p-ERK1/2(p44/42)^T202(FIG. 2C-2D). As the organoids were derived from Mist1-Kras mice, it is not surprising that many proteins on the list are directly related to MAPK and PKC signaling pathways, with the exception of STAT3 (FIG. 2E).

[7] = system: Mist1-Kras mice; assay: Pyrvinium treatment of Mist1-Kras mice (metaplasia progression to dysplasia, gastric corpus histology and immunostaining); type: in vivo, mouse
Experimental: FIG. 5B schematically illustrates the H&E (top) and immunostaining for UEA1 (middle) and Ki-67 (bottom) in the wild type mice treated with Pyr for 2 weeks and Mist1-Kras mice treated with DMSO or Pyr for 1 or 2 weeks. FIG. 5C schematically illustrates the quantitation of Ki-67-positive cells per 20× field. […] Mean±standard deviation. Unpaired t-test or one-way ANOVA with Tukey's multiple comparisons. ns, not significant. *P<0.05. **P<0.01. ***P<0.001. Scale bar=100 μM.
To prepare formaldehyde-fixed paraffin-embedded (FFPE) organoids/spheres, Matrigel domes containing organoids/spheres were fixed in 4% PFA at room temperature for 30 min. The fixed organoids were embedded in HistoGel™ (Thermo Fisher Scientific) followed by a wash in PBS for 1 min and processed according to a standard histological protocol for paraffin embedding. Human tissues were fixed in 10% neutral buffered formalin (NBF) for 1 week at room temperature and mouse tumor tissues were fixed in 4% paraformaldehyde (PFA) solution overnight at 4° C. The fixed tissues were transferred into 70% ethanol and processed according to a standard histological protocol for subsequent paraffin embedding. Four to five micrometers of organoid/sphere or tissue paraffin sections were de-paraffinized in Histoclear solution (Electron Microscopy Services) and rehydrated through a series of ethanol (100%, 95% and 75%).
Antigen retrieval was performed using a pH 6 or pH 9 target retrieval solution (Dako) in a pressure cooker for 15 min and cooled for 1 hour. For immunofluorescence staining, each section was incubated in serum-free protein block solution (Dako) at room temperature for 1.5 hours. Primary antibodies were diluted in Antibody Diluent with background reducing components (Dako) and applied to sections, then incubated overnight at 4° C. Slides were washed in PBS for 5 min three times and secondary antibodies diluted in Antibody Diluent (Dako) were applied to each section. Sections were incubated at room temperature for 1 hour and PBS with Hoechst (1:5000) was applied to the sections for 5 min for nuclei counterstaining. Slides were washed in PBS for 5 min three times, mounted with ProLong™ Gold Antifade Mountant (ThermoFisher) and cover slipped. All fluorescence images were acquired using a Zeiss Axio Imager M2 microscope with Axiovision digital imaging system or scanned using the Aperio Versa 200 Fluorescent Slide Scanner (Leica) at the Vanderbilt Digital Histology Shared Resource. Preparation and overlay of fluorescence images were performed using Adobe Photoshop.
For immunohistochemical staining, sections were blocked in Peroxidase Blocking Solution (Vector Laboratories) at room temperature for 20 min followed by serum-free protein block solution (Dako) at room temperature for 1.5 hours. Primary antibodies were diluted in Antibody Diluent with background reducing components (Dako) and applied to sections, then incubated overnight at 4° C. Horseradish-peroxidase (HRP)-conjugated secondary antibodies were applied to sections and incubated for 15 min at room temperature followed by three washes in PBS for 5 min each. ImmPRESS polymer detection reagent and ImmPACT DAB substrate kits (Vector Laboratories) were used for antibody detection. Images were scanned on a SCN400 slide scanner (Leica) at 20× magnification.
One or two weeks after either DMSO or pyrvinium treatment, gastric mucosa in each group of mice was examined.

[8] = Mist1-Kras mice 3 months after tamoxifen, pyrvinium 1 or 2 weeks
[9] = Mist1-Kras mice, pyrvinium 2 weeks

Cc1cc(/C=C/c2ccc3cc(N(C)C)ccc3[n+]2C)c(C)n1-c1ccccc1 [pyrvinium]
organoid size / growth [1]: reduction in organoid size | CD133^+CD166^+ DSCs (FACS) ([2]; pyrvinium-treated): significant decrease | 7-AAD and Annexin V expression ([2]; pyrvinium-treated cells): increase | expression of myeloid-derived suppressor cell (MDSC)-related markers [3]: tended to increase, although the changes were not significant | Wnt-target gene expression ([4]; 6 or 24 hours): not downregulated | expression of Axin2, Cdca4, Rnf43, and Znrf3 ([4]; 24 hours after treatment): increased | growth of metaplastic cells in hPCO lines ([5]; hPCO with metaplastic features): growth arrest | number of hPCO lines classified pyrvinium-moderate ([5]; of twenty hPCO lines, 6 days): six | number of hPCO lines classified pyrvinium-resistant ([5]; of twenty hPCO lines, 6 days): nine | number of hPCO lines classified pyrvinium-sensitive ([5]; of twenty hPCO lines, 6 days): Five | most prominent effect on protein phosphorylation (phospho-array) ([6]; Meta3 and Meta4): dephosphorylation of proteins related to the STAT pathway | STAT3^Y705 phosphorylation (phospho-array) [6]: loss | acid-secreting parietal cells in corpus mucosa [7, 8]: gradually repopulated the corpus mucosa | number of hyperplastic foveolar glands with UEA1 and Ki-67 positive proliferating cells [7, 8]: significantly decreased | CD4^+ T cell population [7, 9]: dramatic decrease | CD8^+ T cells [7, 9]: did not show a significant difference | CD19^+ B cells [7, 9]: did not show a significant difference | CD163-positive M2-macrophages [7, 9]: significantly decreased | NK cells [7, 9]: significantly decreased | Pim-1 (immunostaining, gastric corpus) [7, 9]: downregulation | number of dysplastic glands [7, 9]: significant decrease | p-STAT3 (immunostaining, gastric corpus) [7, 9]: downregulation | total number of CD3^+ T cells [7, 9]: decreased
